Measured values: patent US20040096356A1, “Assay device for determining analytes in a liquid dairy product” (priority 1997, published 2004)

Target: T1, enzyme R39 (soluble exocellular D-alanyl-D-alanine carboxypeptidase produced by Actinomadura R39) (Actinomadura sp., UniProt P39045)
T1 construct: soluble exocellular D-alanyl-D-alanine carboxypeptidase produced by Actinomadura R39, obtained by the procedure described in J.-M. Frere et al; made in house; host or cells: Actinomadura R39 (natural producer, secreted enzyme)
Assay: Test 1, rapid test (5 minutes): strip test for β-lactam antibiotics in milk using enzyme R39
Type: binding
Conditions: for Intensity 1st band: scale 0 to 10, reference band 6, 47° C., 3 min incubation + 2 min migration
Description: The identifier used in this example is soluble exocellular D-alanyl-D-alanine carboxypeptidase produced by Actinomadura R39, obtained by the procedure described in J.-M. Frere et al., Antimicrobial Agents and Chemotherapy, 18(4), 506-510 (1980).
250 μl of an aqueous solution of enzyme R39 having a concentration of 1 mg/ml are dialysed for 24 hours against 500 ml of HNM buffer (Hepes 10 mM, pH 8, NaCl 10 mM, MgCl2 5 mM). To this dialysed solution of enzyme R39 are then added 2 ml of bicarbonate buffer (0.1 M sodium bicarbonate, pH 9) and 250 μl of a solution of N-hydroxysuccinimide 6-(biotinamido)caproic ester having a concentration of 5 mg/ml in anhydrous DMF. This solution is stirred gently in the LABINCO stirrer for tubes on a rotary axis (available from VEL, Belgium) at a rate of 2 revolutions/minute for 3 hours at room temperature and away from light. The solution thus obtained is dialysed against the HNM buffer ([…]) for 24 hours. In this way a solution of biotinylated enzyme R39 is obtained which is diluted in HNM-BSA buffer (Hepes 500 mM; pH 8, NaCl 500 mM, MgCl2 250 mM, BSA 10 mg/ml) to a concentration of 100 μg of enzyme R39 per ml of buffer. This solution is stored at −20° C.
As the marker use is made of particles of gold having a diameter of 40 nm on which a goat anti-biotin antibody has been deposited in the form of suspensions in a 2 mM aqueous sodium tetraborate solution, with a pH of 7.2, stabilized by 0.1% of sodium azide (available from British Biocell (Ref. GAB40)). The optical density of these suspensions at 520 nm is approximately 10 and the protein concentration is approximately 24 μg/ml.
The biotinylated enzyme R39 solution prepared in Example 2.2.1 is diluted 25 times with the HNM-BSA buffer (Hepes 500 mM, pH 8, NaCl 500 mM, MgCl2 250 mM, BSA 10 mg/ml). At room temperature, 17.5 parts by volume of this dilute biotinylated enzyme R39 solution, 9.27 parts by volume of the gold particle suspension used to label the enzyme R39 and 6 parts by volume of reference gold particle suspension are mixed (see Example 2.3).
The first capture substance makes it possible to fix the identifiers coupled with the free markers present in excess relative to the quantity of antibiotic present in the sample.
Assay devices containing membranes (2), (3) and (4) are used, assembled in accordance with the procedure described in Example 1.1. The membrane (3) of these devices carries on the proximal side the capture substance described in Example 2.4.1. and on the distal side the capture substance described in Example 2.4.2. The capture substances were deposited in accordance with the procedure described in Example 1.2.
Seven samples of milk are prepared, containing 0; 2; 4; 5; 6; 8 and 10 ppb, respectively, of penicillin G. Each of these solutions is then analysed as follows.
An aliquot is taken of 200 μl of milk sample and […] of solution A prepared in Example 2.2.3, and is placed in an Eppendorf tube. This mixture is incubated at 47° C. for 3 minutes. An assay device is then placed vertically in the Eppendorf tube such that the first end of the assay device is in contact with the mixture. The mixture is allowed to migrate over the assay device while the assembly is incubated at 47° C. for 2 minutes.
An intensity value ranging from 0 to 10 is awarded to the bands detected, the value 10 being given to the most intense band and the value 0 being given to the least intense band. On this scale, a value 6 is awarded to the reference band. The intensity of the signal observed in the first detection band is inversely proportional to the quantity of penicillin G present in the sample.
In this example, the test is considered to be positive when the first band has an intensity which is lower than that of the reference band. The results shown in Table 1 indicate that this test makes it possible to detect in 5 minutes down to 4 ppb of penicillin G in a milk sample.

T1 sequence (P39045 50-515): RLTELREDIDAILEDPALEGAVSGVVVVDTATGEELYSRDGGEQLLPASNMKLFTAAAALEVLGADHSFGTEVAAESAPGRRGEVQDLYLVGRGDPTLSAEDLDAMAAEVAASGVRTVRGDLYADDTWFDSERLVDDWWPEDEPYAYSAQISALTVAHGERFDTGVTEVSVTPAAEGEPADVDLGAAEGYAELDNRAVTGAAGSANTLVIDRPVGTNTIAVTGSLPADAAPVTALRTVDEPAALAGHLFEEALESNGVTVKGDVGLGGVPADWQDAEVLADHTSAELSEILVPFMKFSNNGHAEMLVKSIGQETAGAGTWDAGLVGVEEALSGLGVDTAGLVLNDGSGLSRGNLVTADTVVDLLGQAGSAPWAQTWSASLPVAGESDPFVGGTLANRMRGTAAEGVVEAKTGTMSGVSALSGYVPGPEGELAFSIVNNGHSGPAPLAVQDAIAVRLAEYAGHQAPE

CC1(C)S[C@@H]2[C@H](NC(=O)Cc3ccccc3)C(=O)N2[C@H]1C(=O)O [Penicillin G, penicillin G]
Intensity 1st band (2 ppb penicillin G in milk): 8 | Intensity 1st band (4 ppb penicillin G in milk): 5 | Intensity 1st band (5 ppb penicillin G in milk): 3 | Intensity 1st band (6 ppb penicillin G in milk): 2 | Intensity 1st band (8 ppb penicillin G in milk): 1 | Intensity 1st band (10 ppb penicillin G in milk): 0 | lowest concentration detected in a milk sample (in 5 minutes, positive when first band is less intense than reference band): 4 ppb
